The values that follow are results of earlier work, collected in patent US10849951B2, “Use of PHY906 as treatment for inflammatory bowel disease and/or irritable bowel syndrome” (priority 2007, dated 2020).

One series concerns perineal Crohn's. The following applies: human, in vivo.
Series [1] deals with bacterial 13-glucuronidase (Escherichia coli, UniProt P05804).
A further series has as its system patients. The following applies: NCI Common Toxicity criteria.

Sequence of bacterial 13-glucuronidase (P05804 whole entry): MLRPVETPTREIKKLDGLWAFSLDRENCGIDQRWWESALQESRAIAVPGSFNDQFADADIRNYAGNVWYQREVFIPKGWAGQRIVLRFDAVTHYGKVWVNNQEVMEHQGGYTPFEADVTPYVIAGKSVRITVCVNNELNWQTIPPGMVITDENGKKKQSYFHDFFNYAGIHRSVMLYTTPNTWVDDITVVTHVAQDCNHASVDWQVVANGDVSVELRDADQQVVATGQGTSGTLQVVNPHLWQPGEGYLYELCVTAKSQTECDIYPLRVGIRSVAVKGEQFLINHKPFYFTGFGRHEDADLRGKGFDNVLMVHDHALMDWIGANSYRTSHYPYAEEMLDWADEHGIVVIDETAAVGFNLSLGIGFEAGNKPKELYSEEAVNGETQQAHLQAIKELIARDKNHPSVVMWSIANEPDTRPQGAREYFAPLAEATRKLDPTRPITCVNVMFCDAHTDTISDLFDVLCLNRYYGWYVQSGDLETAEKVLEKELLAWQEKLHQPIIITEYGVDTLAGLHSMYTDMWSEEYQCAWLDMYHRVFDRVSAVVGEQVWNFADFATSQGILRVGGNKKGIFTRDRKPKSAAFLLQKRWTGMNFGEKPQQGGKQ

In the case of `Cc1ncc([N+](=O)[O-])n1CCO` [Metronidazole, metronidazole], the “cases in which managing perineal Crohn's is effective” value in the series on perineal Crohn's is on record as “over 50%”. On to `O=c1cc(-c2ccccc2)oc2cc(O)c(O)c(O)c12` [Baicalein], for which the “inhibition of bacterial 13-glucuronidase” value in series [1] was “feedback inhibitor”. As to `CCc1c2c(nc3ccc(OC(=O)N4CCC(N5CCCCC5)CC4)cc13)-c1cc3c(c(=O)n1C2)COC(=O)[C@]3(O)CC` [CPT-11, irinotecan], the “patients with diarrhea classified grade 3 (serious) or grade 4 (life-threatening)” value in the series on patients is listed as “about 40%”.
